Where no end group is shown, it is not given here.
Experiments:
K. pneumoniae 1711 = conditions: carbapenemase KPC (class A), rectal swab; microdilution, 37 °C, 20 h; N/D = no antibacterial activity detected
Description: (§1) Each strain was grown in Mueller Hinton Broth (MH Broth), and 5 × 10^5 CFU/mL was used to evaluate antibacterial activity. Clinical carbapenem-resistant K. pneumoniae and E. coli isolates were collected at the AOU of Virology and Microbiology of the University of Campania “Luigi Vanvitelli”.
(§2) The antimicrobial activity of Hylin-a1, AR-23, and RV-23 was investigated using a microdilution assay as reported by the National Committee on Clinical Laboratory Standards (NCCLS) guidelines against a broad spectrum of Gram-negative bacteria. […] In 96-well, the standardized bacterial inoculum (5 × 10^5 colony forming units, CFU/mL) was inoculated together with AMPs and incubated at 37 °C for 20 h. After the time of incubation, optical density (OD) was measured at TECAN, and data were expressed as a percentage of inhibition. In addition to assessing the MIC values, the bactericidal effect was also studied as reported elsewhere.

E. coli 1376 = conditions: carbapenemase NDM (class B), rectal swab, N/D = no antibacterial activity detected
Description: as §1, §2

K. pneumoniae 1745 = conditions: carbapenemase KPC (class A), ulcer; microdilution, 37 °C, 20 h; N/D = no antibacterial activity detected
Description: as §1, §2

E. coli 1441 = conditions: carbapenemase KPC (class A), rectal swab; microdilution, 37 °C, 20 h; N/D = no antibacterial activity detected
Description: as §1, §2

E. coli 716 = conditions: carbapenemases IMP1, VIM, NDM (class B), urine, N/D = no antibacterial activity detected
Description: as §1, §2

E. coli 3140 = conditions: carbapenemase OXA-48 (class D), urine; microdilution, 37 °C, 20 h; N/D = no antibacterial activity detected
Description: as §1, §2

E. coli 2267 = conditions: carbapenemase NDM (class B), rectal swab; microdilution, 37 °C, 20 h; N/D = no antibacterial activity detected
Description: as §1, §2

K. pneumoniae 1746 = conditions: carbapenemase VIM (class B), rectal swab; microdilution, 37 °C, 20 h; N/D = no antibacterial activity detected
Description: as §1, §2

HaCaT cells = assay: MTT cytotoxicity assay on HaCaT keratinocytes; format: cell-based, human
Description: To evaluate their safety profile, cytotoxicity assays were performed on HaCaT keratinocytes. Cells were exposed for 20 h to peptides at doses ranging from 0.39 to 100 μM.
Figure 1 Dose–response curves for the AMPs against HaCaT cell line and CC50 (reported in μM), HillSlope, and R^2 values were obtained by the fitting of the curves. The viability effect of Hylin-a1, AR-23, and RV-23 was analyzed on HaCaT cells. The cell monolayer was treated with serial dilutions of peptides for 20 h. Untreated cells were used as a positive control, while dimethyl sulfoxide (DMSO) was used as a negative control. HillSlope: The measure of the steepness of the dose–response curve. […] R^2 (coefficient of determination) indicates how well the model fits the data. Ranges from 0 to 1, with 1 representing a perfect fit.
The cytotoxic effect of peptides was examined using 3-(4,5 dimethylthiazol-2-yl)-2,5-diphenyltetrazolium bromide (MTT), as previously described. Cell viability, expressed as a percentage, was calculated in relation to the viability of untreated cells (+). DMSO was used as negative control (−). The human keratinocyte cell line HaCaT (Cell Lines Service, CLS-, Eppelheim, Germany) was used as a cellular model to evaluate the peptides’ cytotoxicity. HaCaT cells were grown in Dulbecco’s Modified Eagle Medium (DMEM) with 4.5 g/L of glucose (Microtech, Naples, Italy) supplemented with an antibiotic solution 100× (Himedia, Naples, Italy) and 10% Fetal Bovine Serum (FBS, Microtech).

Serum stability assay = format: in vitro ADME, bovine; conditions: 10% FBS
Description: The susceptibility of Hylin-a1, AR-23, and RV-23 to proteolytic degradation in serum was evaluated, following the protocol reported in Section 4.3.
Figure 6 AMP stability in serum. Stability profiles of Hylin-a1 (red line), AR-23 (gray line), and RV-23 (black line) are reported. All stability tests were performed at least in triplicate. LC-MS analyses were performed using an Agilent 1260 Infinity II LC/MSD system (Milan, Italy). The percentages of intact peptides after different time points of incubation in serum were determined by integrating RP-HPLC peaks from the chromatograms recorded at a wavelength of 210 nm. The test was performed in triplicate, and the data are presented as mean values, with error bars representing standard deviations.
Peptides were mixed with 10% FBS at a final concentration of 0.2 mg/mL and incubated in a water bath at 37 °C. […] Then, the mixture was diluted with 0.1% TFA in H2O (1:1). Samples were characterized using LC-MS on a C18 Aeris Peptide column (100 × 2.1 mm), applying a linear gradient from 5 to 80% solvent B (0.1% TFA in CH3CN) over solvent A (0.1% TFA in water) in 15 min at a flow rate of 0.2 mL/min. All stability tests were performed at least in triplicate. LC-MS analyses were performed using an Agilent 1260 Infinity II LC/MSD system (Milan, Italy).

E. coli ATCC 25992 = conditions: microdilution (NCCLS), MH broth, 5 × 10^5 CFU/mL, 37 °C, 20 h, absorbance; 50 to 1.56 μM
Description: (§3) The three peptides were tested for their antibacterial activity. […] As described in the Materials and Methods section, the antibacterial effect of peptides was investigated using a microdilution assay. Each concentration of AMPs was inoculated with bacteria in 96-well plates and incubated at 37 °C for 20 h. After that, MIC values were determined by analyzing absorbance and expressed as a percentage of inhibition. MBC was assessed by observing the colonies’ growth on agar plates, as described elsewhere.
as §1, §2

K. pneumoniae ATCC 10031 = tested on: K. pneumoniae ATCC 10031
Description: as §3, §1, §2

## AIGSILGALAKGLPTLISWIKNR-NH2 [AR-23]
K. pneumoniae 1711
  MIC: 50 µM
E. coli 1376
  MBC: 50 µM
E. coli 1376; microdilution, 37 °C, 20 h
  MIC: 25 µM
K. pneumoniae 1745
  MIC: 50 µM
E. coli 1441
  MIC: 25 µM
E. coli 716
  MBC: 50 µM
E. coli 716; microdilution, 37 °C, 20 h
  MIC: 25 µM
E. coli 3140
  MIC: 50 µM
E. coli 2267
  MIC: 25 µM
K. pneumoniae 1746
  MIC: 25 µM
HaCaT cells; HaCaT keratinocytes, 20 h exposure, 0.39 to 100 μM
  50% cytotoxic concentration (CC50): 50 µM
HaCaT cells; HaCaT, 20 h, Figure 1
  CC50 obtained by the fitting of the curves: 52.25 µM
Serum stability assay; 0.2 mg/mL, 37 °C, RP-HPLC peaks at 210 nm, mean of triplicate, after the first 2 h up to 24 h
  percentage of intact fragments, almost constant up to 24 h: around 30%
Serum stability assay; serum, peptide 0.2 mg/mL, 37 °C water bath, ethanol precipitation, LC-MS, RP-HPLC peak integration at 210 nm, at least triplicate
  half-life: < 2 h
E. coli ATCC 25992
  MIC: 25 µM
K. pneumoniae ATCC 10031; colonies' growth on agar plates after microdilution, N/D = not detected antibacterial activity
  MBC: 25 µM
K. pneumoniae ATCC 10031; microdilution (NCCLS), MH broth, 5 × 10^5 CFU/mL, 37 °C, 20 h, absorbance, 50 to 1.56 μM
  MIC: 6.25 µM
